Measured values taken from paper PMC10515483, “Structure–Reactivity Studies of 2-Sulfonylpyrimidines Allow Selective Protein Arylation” (Bioconjugate Chemistry, 2023).
Values after ≈ are worked out from the molar mass of the structure shown. “Also recorded” adds a separate entry of the source.

What was measured:
[1] = target: T1, p53-Y220C (Homo sapiens, UniProt P04637, M133L/N239Y/N268D/V203A/Y220C); experiment: Differential scanning fluorimetry (DSF); assay type: binding; details: 100 μM compound; 8 µM p53-Y220C; read-out: Protein thermal stability ΔTm
T1 construct: (residues 94-312); 6xHis/lipoyl domain/TEV protease cleavage site (N, cleaved yes); made in house; host or cells: E. coli C41
From the text: (§1) We also probed the general effect of 2-SPs on protein stability by using differential scanning fluorimetry (DSF). […] Mutants of the 25 kDa DNA-binding domain of the tumor suppressor p53 are notorious for their reduced thermal stability and denaturation/aggregation propensity.[37] The 56 kDa armadillo domain (ARD) of β-catenin mediates canonical Wnt signaling and plays a central role in embryogenesis and tissue homeostasis.[38] FGE (37 kDa) is the only known activator of human sulfatases, and its stability is susceptible to modification of its cysteines.[39] […]
described.7 Briefly, the N-terminal fusion protein (6xHis/lipoyl domain/TEV protease cleavage site) was overexpressed using E. coli C41 cells in 2xTY medium at 20°C for 16 h and purified using standard Ni-affinity chromatography protocols. […]
was further purified using a Heparin column. Finally, gel filtration chromatography was performed using a Superdex 75 16/60 preparative gel filtration column (GE Healthcare) in a 25 mM KPi (pH 7.2), 150 […]
mM NaCl, and 1 mM TCEP buffer. […]
gel electrophoresis and ESI-MS. […]

[2] = target: T2, FGE-C341S (Homo sapiens, UniProt Q8NBK3, C341S); experiment: Differential scanning fluorimetry (DSF); assay type: binding; details: 100 μM compound; 10 µM FGE; read-out: Protein thermal stability ΔTm
T2 construct: His7 (C); made in house; host or cells: High Five insect cells (baculovirus, pAcGP67B-His7)
T2 sequence (Q8NBK3 34-374 C341S): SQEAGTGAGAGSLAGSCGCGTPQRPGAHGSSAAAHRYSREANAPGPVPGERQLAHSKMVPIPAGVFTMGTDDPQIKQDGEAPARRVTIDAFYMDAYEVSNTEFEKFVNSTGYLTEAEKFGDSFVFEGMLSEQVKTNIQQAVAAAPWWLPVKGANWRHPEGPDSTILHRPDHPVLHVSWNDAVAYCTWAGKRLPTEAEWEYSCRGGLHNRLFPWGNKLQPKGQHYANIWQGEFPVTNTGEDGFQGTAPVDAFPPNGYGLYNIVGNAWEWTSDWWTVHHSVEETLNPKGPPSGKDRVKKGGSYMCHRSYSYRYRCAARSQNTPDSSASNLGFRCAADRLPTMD
From the text: as §1
The cloning of human FGE-WT cDNA into baculoviral transfer vector pAcGP67B-His7 and the generation of the recombinant virus (in Sf9 cells) for expression of C-terminally His-tagged recombinant human FGE in High Five insect cells have been […]
were generated by site -directed PCR mutagenesis using pAcGP67B-FGE-WT-His7 as template and the […]
-3’. All expression plasmids were verified by sequencing of the entire coding region to exclude any undesired PCR -derived errors. The purification method was essentially performed as described in Peng et al., with one modification. The size exclusion […]
chromatography (His -trap) step foll owed directly by a second step purification using the ion -exchange column chromatography (Resource -Q). […]

[3] = GSH arylation rate constants (NMR; UV-vis for fast warheads); assay type: physicochemical; details: for k: Table S8, rate constants obtained at pH = 7; for k/kref / ΔΔG≠1exp: relative to 4q; for ΔΔG≠1exp: via -RTln(k/kref)
Summary of the method: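 Second-order rate constants k for GSH arylation derived from pseudo-first-order k′ (warhead:GSH 1:10), by normalized NMR integration of the disappearing warhead signal over 6 h; TMSP internal standard. KPi buffer with 5% d6-DMSO, pH 7.0 and 6.5, 20 °C; UV–vis used for fast warheads. Mean of ≥2 independent runs.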

[4] = Solubility in KPi buffer by NMR with TMSP internal standard; details: 50 mM KPi aqueous buffer, pH 7, aqueous with cosolvent or surfactant or cyclodextrin, kinetic from dmso stock
[5] = pH 6.5, by NMR, KPi buffer, 5% DMSO-d6
[6] = pH 7.0, by NMR, KPi buffer, 5% DMSO-d6
[7] = pH 7.0, ratio to rate constant of 4q, acceleration (+) or deceleration (-)
[8] = pH 6.5, measured by UV titrations
[9] = pH 7.0, measured by UV titrations
[10] = pH 7.0, ratio to 4q, from value measured by UV titrations (footnote a)

Structure (SMILES)	ΔTm at 100 µM [1]	ΔTm at 100 µM [2]	k [3]	rate constant (k) for the reaction with GSH [3, 5]	rate constant (k) for the reaction with GSH [3, 6]	k change (vs ref) [3, 7]	k/kref [3]	ΔΔG≠1exp [3]	solubility [4]	rate constant (k) for the reaction with GSH [3, 8]	second order rate constant k with GSH ([3]; pH 7.0, KPi buffer)	rate constant (k) for the reaction with GSH [3, 9]	k change (vs ref) [3, 10]	times faster at pH 7.0 vs 6.5 ([3]; GSH)	times slower with GSH than with NACME ([3]; pH 7.0)
Cc1ccnc(S(C)(=O)=O)n1 [4c]	-0.2 ± 0.1 °C	-0.6 °C	0.0043 M⁻¹ s⁻¹	0.0015 ± 0.0005 M⁻¹ s⁻¹	0.0043 ± 0.0008 M⁻¹ s⁻¹	-6 fold	0.17	1.05 kcal/mol	≥ 2000 µM						
CS(=O)(=O)c1nccc(C(F)(F)F)n1 [4l]	1.8 °C	-0.6 °C	21 M⁻¹ s⁻¹				840	-4.06 kcal/mol	≥ 2000 µM	4.9 ± 0.48 M⁻¹ s⁻¹	≈ 21 M^–1 s^–1	21 ± 0.6 M⁻¹ s⁻¹	+840 fold		
COc1ccnc(S(C)(=O)=O)n1 [4b]	0.2 °C	0 °C	0.0045 M⁻¹ s⁻¹	0.0013 ± 0.0008 M⁻¹ s⁻¹	0.0045 ± 0.0005 M⁻¹ s⁻¹	-6 fold	0.18	1.03 kcal/mol	≥ 2000 µM						
CS(=O)(=O)c1ncc(Br)cn1 [4t]	0.4 °C	-0.4 ± 0.3 °C	0.29 M⁻¹ s⁻¹	0.056 ± 0.034 M⁻¹ s⁻¹	0.29 ± 0.25 M⁻¹ s⁻¹	+12 fold	12	-1.46 kcal/mol	≥ 2000 µM						
CS(=O)(=O)c1ncccn1 [4q, 2-methylsulfonylpyrimidine]	-0.2 ± 0.1 °C	-0.6 °C	0.0250 M⁻¹ s⁻¹	0.004 ± 0.0016 M⁻¹ s⁻¹	0.025 ± 0.014 M⁻¹ s⁻¹		1	0 kcal/mol	≥ 2000 µM		≈ 1.6 × 10^–2 M^–1 s^–1; also recorded: ≈ 1.2 × 10^–2 M^–1 s^–1			approximately 5 times	approximately 3 times
CS(=O)(=O)c1nccc(N)n1 [4g]	-0.2 ± 0.1 °C	-0.4 ± 0.3 °C	0.023 M⁻¹ s⁻¹	0.032 ± 0.006 M⁻¹ s⁻¹	0.023 ± 0.003 M⁻¹ s⁻¹	≈	0.92	0.0502 kcal/mol	≥ 2000 µM						
O=[N+]([O-])c1ccc(S(=O)(=O)c2ncccn2)cc1 [5f]	0.4 °C	-0.4 ± 0.3 °C	0.29 M⁻¹ s⁻¹			+12 fold	12	-1.46 kcal/mol	100 µM (≈ 26.5 µg/mL)	0.2 ± 0.09 M⁻¹ s⁻¹		0.29 ± 0.17 M⁻¹ s⁻¹			
CS(=O)(=O)c1ncc(I)cn1 [4u]	0.4 °C	-0.2 ± 0.3 °C		0.025 ± 0.01 M⁻¹ s⁻¹	0.66 ± 0.01 M⁻¹ s⁻¹	+26 fold			≥ 2000 µM						
COc1cc(OC)nc(S(C)(=O)=O)n1 [4f, 4,6-dimethoxy-2-methylsulfonylpyrimidine]	-0.2 ± 0.1 °C	0 °C	0.010 M⁻¹ s⁻¹	0.003 ± 0.0005 M⁻¹ s⁻¹	0.01 M⁻¹ s⁻¹	-3 fold	0.40	0.55 kcal/mol	≥ 2000 µM						
Nc1ccc(S(=O)(=O)c2ncccn2)cc1 [5b]	-0.2 ± 0.1 °C	-0.4 ± 0.3 °C	0.0050 M⁻¹ s⁻¹	0.002 M⁻¹ s⁻¹	0.005 M⁻¹ s⁻¹	-5 fold	0.20	0.956 kcal/mol	≥ 2000 µM						
O=S(=O)(NCc1ccccc1)c1ncccn1 [5g]	0.2 °C	0 °C		0.00015 ± 5e-05 M⁻¹ s⁻¹	0.0004 ± 0.0001 M⁻¹ s⁻¹	-63 fold			≥ 2000 µM						
CS(=O)(=O)c1nccc(-c2ccccc2)n1 [4e]	0.2 °C	-0.2 ± 0.3 °C		0.002 ± 0.0005 M⁻¹ s⁻¹	0.005 M⁻¹ s⁻¹	-5 fold			< 2000 µM						
CS(=O)(=O)c1nccc(C(N)=O)n1 [4j]	-0.2 ± 0.1 °C	-0.6 °C		0.095 ± 0.015 M⁻¹ s⁻¹	0.3 ± 0.0025 M⁻¹ s⁻¹	+12 fold									
O=S(=O)(Oc1c(F)c(F)c(F)c(F)c1F)c1ncccn1 [5h]	0.4 °C	-0.2 ± 0.3 °C	24 M⁻¹ s⁻¹			+960 fold	960	-4.06 kcal/mol	100 µM (≈ 32.6 µg/mL)	5.4 ± 0.72 M⁻¹ s⁻¹		24 ± 1.1 M⁻¹ s⁻¹			
CCCCS(=O)(=O)c1ncccn1 [5c]	0 °C	-0.4 ± 0.3 °C		0.0028 ± 0.0003 M⁻¹ s⁻¹	0.01 M⁻¹ s⁻¹	-3 fold			≥ 2000 µM						
Cc1cc(C)nc(S(C)(=O)=O)n1 [4a]	0 °C	0 °C	0.0010 M⁻¹ s⁻¹	0.00038 ± 8e-05 M⁻¹ s⁻¹	0.001 M⁻¹ s⁻¹	-25 fold	0.040	1.91 kcal/mol	≥ 2000 µM						
CS(=O)(=O)c1ncc(Br)c(C(=O)O)n1 [4i]	0.8 °C	-0.6 °C		0.075 ± 0.035 M⁻¹ s⁻¹	0.3 ± 0.013 M⁻¹ s⁻¹	+12 fold				0.15 ± 0.09 M⁻¹ s⁻¹		0.64 ± 0.009 M⁻¹ s⁻¹	+26 fold		
O=S(=O)(c1ccccc1)c1ncccn1 [5d]	0 °C	-0.4 ± 0.3 °C	0.035 M⁻¹ s⁻¹	0.01 ± 0.005 M⁻¹ s⁻¹	0.035 ± 0.015 M⁻¹ s⁻¹	≈	1.4	-0.198 kcal/mol	≥ 2000 µM						
CS(=O)(=O)c1nccc(C(=O)O)n1 [4d]	0.2 °C	-0.4 ± 0.3 °C	0.0050 M⁻¹ s⁻¹	0.0015 M⁻¹ s⁻¹	0.005 M⁻¹ s⁻¹	-5 fold	0.20	0.956 kcal/mol	≥ 2000 µM						
CC(C)(C)S(=O)(=O)c1ncccn1 [5a]	0.2 °C	-0.2 ± 0.3 °C		Ca. 0.03 mM-1.s-1	0.00018 ± 3e-05 M⁻¹ s⁻¹	-139 fold	0.0072	2.87 kcal/mol	≥ 2000 µM						
CS(=O)(=O)c1ncc(C(F)(F)F)cn1 [4x]	0.8 °C	-0.6 °C	1900 M⁻¹ s⁻¹			+76,000 fold	76000	-6.69 kcal/mol	≥ 2000 µM						
